Results taken from patent US20260130933A1, “PHARMACEUTICAL COMPOSITION FOR PREVENTION OR TREATMENT OF NEPHROPATHY AND/OR DIABETES MELLITUS, COMPRISING ENAVOGLIFLOZIN” (DAEWOONG PHARMACEUTICAL CO., LTD., priority 2022, published 2026).

Test: Example 3: phase 3 trial, enavogliflozin 0.3 mg vs dapagliflozin 10 mg once a day for 24 weeks added to metformin and gemigliptin in patients with type 2 diabetes (same endpoints, rescue drug)
Format: in vivo, human
Experimental: 1) when Metformin (≥1,000 mg/Day) was Administered at a Constant Dose for at Least 8 Weeks Prior to Pre-Visit (Pre-Screening) • Metformin (≥1,000 mg/day) and gemigliptin (50 mg/day) were co-administered during the 8-week stabilization period. […] 4) when Metformin (≥1,000 mg/Day) and Gemigliptin (50 mg/Day) were Co-Administered at Constant Doses for at Least 8 Weeks Prior to Pre-Visit (Prescreening) • Without a separate stabilization period, Pre-visit (pre-screening) was Visit 1 (screening).
Subjects who met the inclusion/exclusion criteria continued to receive metformin and gemigliptin while receiving a placebo of the clinical trial drug in a single-blind (subject-blinded) state for a 2-week run-in period.
Here, the randomized subjects were stratified according to the administration therapy (co-administration with two or less agents (one or two agents) or three or more agents) of a conventional hypoglycemic agent (before washout of another hypoglycemic agent) within 24 weeks prior to obtaining written informed consent and by an HbA1c value (<8% or ≥8%) at Visit 1 (screening) measured in the central laboratory.
The randomized subjects were administered two tablets of the clinical trial drug corresponding to each administration group once a day, and then visited the institution at weeks 6, 12, 18, and 24 during the 24-week administration period to conduct efficacy and safety assessments. In addition, during the clinical trial period, they were instructed to exercise regularly and control their diet without changing their daily life patterns.
• 1) Change in HbA1c at week 24 after administration of clinical trial drug compared to Visit 2 (randomization)
• 1) Change in HbA1c at each time point of weeks 6, 12, and 18 after administration of clinical trial drug compared to Visit 2 (randomization) • 2) Change in FPG at each time point of weeks 6, 12, 18, and 24 after administration of clinical trial drug compared to Visit 2 (randomization) • 3) Proportion of subjects achieving HbA1c<7% at each time point of weeks 6, 12, 18, and 24 after administration of clinical trial drug • 4) Proportion of subjects achieving HbA1c<6.5% at each time point of weeks 6, 12, 18, and 24 after administration of clinical trial drug • 5) Proportion of subjects achieving therapeutic response (HbA1c change (HbA1c at Visit 2—HbA1c at each evaluation time point)>0.5% or HbA1c<7% at each evaluation time point compared to Visit 2 (randomization)) at each time point of weeks 6, 12, 18, and 24 after administration of clinical trial drug • 6) Proportion of subjects achieving therapeutic response (HbA1c change (HbA1c at Visit 2—HbA1c at each evaluation time point)>0.7% or HbA1c<7% at each evaluation time point compared to Visit 2 (randomization)) at each time point of weeks 6, 12, 18, and 24 after administration of clinical trial drug • 7) Proportion of subjects achieving therapeutic response (HbA1c change (HbA1c at Visit 2—HbA1c at each evaluation time point)>1% or HbA1c<7% at each evaluation time point compared to Visit 2 (randomization)) at each time point of weeks 6, 12, 18, and 24 after administration of clinical trial drug

[1] = week 6, per-protocol set, enavogliflozin 0.3 mg, dapagliflozin 10 mg
[2] = week 12, modified per-protocol set 1, enavogliflozin 0.3 mg vs dapagliflozin 10 mg
[3] = week 12, modified per-protocol set 1, enavogliflozin 0.3 mg, dapagliflozin 10 mg
[4] = week 12, modified per-protocol set 2

OC[C@H]1O[C@@H](c2cc(Cc3ccc(C4CC4)cc3)c(Cl)c3c2CCO3)[C@H](O)[C@@H](O)[C@@H]1O [Enavogliflozin, (2S,3R,4R,5S,6R)-2-(7-chloro-6 (4-cyclopropylbenzyl)-2,3-dihydrobenzofuran-4-yl)-6-(hydroxymethyl)tetrahydro-2H-pyran-3,4,5-triol]
Fasting C-peptide, Mean [1]: 0.67 ng/mL
Fasting C-peptide, Median [1]: 0.63 ng/mL
HbA1c, Mean [1]: 7.06%
HbA1c, Median [1]: 6.94%
Subjects achieving HbA1c target of <6.5%, (%) [1]: 11.21%
Subjects achieving HbA1c target of <7%, % [1]: 56.03%
body weight, Median [1]: 66.80 kg
Subjects achieving therapeutic glycemic response 1, % (week 6, per-protocol set, response 1 = HbA1c change >0.5% or HbA1c <7%, enavogliflozin 0.3 mg, dapagliflozin 10 mg): 87.07%
Subjects achieving therapeutic glycemic response 2, % (week 6, per-protocol set, response 2 = HbA1c change >0.7% or HbA1c <7%, enavogliflozin 0.3 mg, dapagliflozin 10 mg): 78.45%
Subjects achieving therapeutic glycemic response 3, % (week 6, per-protocol set, response 3 = HbA1c change >1% or HbA1c <7%, enavogliflozin 0.3 mg, dapagliflozin 10 mg): 70.69%
FPG change from baseline, LS mean (SE) (week 12): −27.17(1.54) mg/dL
HDL-C change from baseline, LS mean (SE) (week 12): 3.18(0.62) mg/dL
HOMA-β change from baseline, LS mean (SE) (week 12): 7.78(1.94)
HbA1c change from baseline, LS mean (SE) (week 12): −0.87(0.04) % p
LDL-C change from baseline, LS mean (SE) (week 12): 2.95(1.79) mg/dL
UACR change from baseline, LS mean (SE) (week 12): −15.12(4.60) g/kg
UGCR change from baseline, LS mean (SE) (week 12): 58.21(2.07) mg/mg
adiponectin change from baseline, LS mean (SE) (week 12): 0.89(0.34) μg/mL
body weight change from baseline, LS mean (SE) (week 12): −2.72(0.20) kg
diastolic blood pressure change from baseline, LS mean (SE) (week 12): −4.30(0.69) mmHg
fasting C-peptide change from baseline, LS mean (SE) (week 12): −0.09(0.02) ng/ml
leptin change from baseline, LS mean (SE) (week 12): −1.97(0.48) ng/ml
systolic blood pressure change from baseline, LS mean (SE) (week 12): −6.43(0.88) mmHg
total cholesterol change from baseline, LS mean (SE) (week 12): 6.80(2.04) mg/dL
triglyceride change from baseline, LS mean (SE) (week 12): −3.23(5.25) mg/dL
FPG change from baseline, LS mean difference (week 12, vs dapagliflozin): -2.75 mg/dL
HDL-C change from baseline, LS mean difference (week 12, vs dapagliflozin): 0.34 mg/dL
HOMA-IR change from baseline, LS mean difference (week 12, vs dapagliflozin): −0.06
HOMA-β change from baseline, LS mean difference (week 12, vs dapagliflozin): 2.55
HbA1c change from baseline, LS mean difference (week 12, vs dapagliflozin): −0.04 % p
LDL-C change from baseline, LS mean difference (week 12, vs dapagliflozin): 0.24 mg/dL
Odds ratio for achieving HbA1c<6.5% (week 12, vs dapagliflozin): 1.44
Odds ratio for achieving HbA1c<7% (week 12, vs dapagliflozin): 1.20
Odds ratio, therapeutic response (HbA1c change >0.5% or HbA1c<7%) (week 12, vs dapagliflozin): 1.09
Odds ratio, therapeutic response (HbA1c change >0.7% or HbA1c<7%) (week 12, vs dapagliflozin): 1.30
Odds ratio, therapeutic response (HbA1c change >1% or HbA1c<7%) (week 12, vs dapagliflozin): 1.31
UACR change from baseline, LS mean difference (week 12, vs dapagliflozin): -3.35 g/kg
UGCR change from baseline, LS mean difference (week 12, vs dapagliflozin): 13.37 mg/mg
adiponectin change from baseline, LS mean difference (week 12, vs dapagliflozin): 0.19 µg/mL
body weight change from baseline, LS mean difference (week 12, vs dapagliflozin): -0.01 kg
diastolic blood pressure change from baseline, LS mean difference (week 12, vs dapagliflozin): −2.04 mmHg
fasting C-peptide change from baseline, LS mean difference (week 12, vs dapagliflozin): -0.02 ng/mL
leptin change from baseline, LS mean difference (week 12, vs dapagliflozin): -0.28 ng/mL
systolic blood pressure change from baseline, LS mean difference (week 12, vs dapagliflozin): −1.37 mmHg
total cholesterol change from baseline, LS mean difference (week 12, vs dapagliflozin): 1.40 mg/dL
triglyceride change from baseline, LS mean difference (week 12, vs dapagliflozin): 8.79 mg/dL
Change from baseline in HDL-C, ANCOVA LS mean difference [2]: 0.34 mg/dL
Change from baseline in LDL-C, ANCOVA LS mean difference [2]: 0.24 mg/dL
Change from baseline in total cholesterol, ANCOVA LS mean difference [2]: 1.40 mg/dL
Change from baseline in triglycerides, ANCOVA LS mean difference [2]: 8.79 mg/dL
Change from baseline in HDL-C, ANCOVA LS mean [3]: 3.18 mg/dL
Change from baseline in HDL-C, Mean [3]: 3.17 mg/dL
Change from baseline in HDL-C, Median [3]: 3.00 mg/dL
Change from baseline in LDL-C, ANCOVA LS mean [3]: 2.95 mg/dL
Change from baseline in LDL-C, Mean [3]: 3.76 mg/dL
Change from baseline in LDL-C, Median [3]: 3.00 mg/dL
Change from baseline in total cholesterol, ANCOVA LS mean [3]: 6.80 mg/dL
Change from baseline in total cholesterol, Mean [3]: 7.79 mg/dL
Change from baseline in total cholesterol, Median [3]: 7.00 mg/dL
Change from baseline in triglycerides, ANCOVA LS mean [3]: -3.23 mg/dL
Change from baseline in triglycerides, Mean [3]: 0.59 mg/dL
Change from baseline in triglycerides, Median [3]: -3.00 mg/dL
Fasting HDL-C, Mean [3]: 49.21 mg/dL
Fasting HDL-C, Median [3]: 47.50 mg/dL
Fasting LDL-C, Mean [3]: 75.11 mg/dL
Fasting LDL-C, Median [3]: 72.00 mg/dL
Fasting total cholesterol, Mean [3]: 142.09 mg/dL
Fasting triglycerides, Mean [3]: 118.98 mg/dL
Fasting triglycerides, Median [3]: 98.50 mg/dL
fasting Total cholesterol, Median [3]: 136.00 mg/dL
Change from baseline in diastolic blood pressure, ANCOVA LS mean [4]: −4.30 mmHg
Change from baseline in diastolic blood pressure, LS mean difference (enavogliflozin − dapagliflozin) [4]: −2.04 mmHg
